Measurements from ChEMBL document CHEMBL4842350, “Discovery of a Novel Bromodomain and Extra Terminal Domain (BET) Protein Inhibitor, I-BET282E, Suitable for Clinical Progression” (J Med Chem, 2021).
Values after ≈ are worked out from the molar mass of the structure shown.

Tests used:
[1] = molecular target: T1, Bromodomain-containing protein 4 (Homo sapiens, UniProt O60885); assay: Inhibition of BRD4 in human PBMC assessed as reduction in LPS-induced IL-6 secretion incubated for 18 to 24 hrs by MSD assay
[2] = molecular target: T1, Bromodomain-containing protein 4; assay: Inhibition of BRD4 in human whole blood assessed as reduction in LPS-induced IL-6 secretion preincubated for 30 mins followed by LPS stimulation and measured after 24 hrs by MSD assay; assay type: tissue-based
[3] = molecular target: Bromodomain-containing protein 4 (Homo sapiens, UniProt O60885, Y390A); assay: Displacement of Alexa Fluor 647 labelled ligand from recombinant human N-terminal 6His-tagged BRD4-BD1 Y390A mutant (1 to 477 residue) expressed in Escherichia coli incubated for 30 mins by TR-FRET assay
Cytochrome P450 3A4 = Cytochrome P450 3A4 (Homo sapiens, UniProt P08684); assay: Inhibition of recombinant human CYP3A4 expressed in Escherichia coli using VG as probe substrate incubated for 15 to 60 mins by fluorometric assay; assay type: ADME
Sequence of Cytochrome P450 3A4 (P08684 whole entry): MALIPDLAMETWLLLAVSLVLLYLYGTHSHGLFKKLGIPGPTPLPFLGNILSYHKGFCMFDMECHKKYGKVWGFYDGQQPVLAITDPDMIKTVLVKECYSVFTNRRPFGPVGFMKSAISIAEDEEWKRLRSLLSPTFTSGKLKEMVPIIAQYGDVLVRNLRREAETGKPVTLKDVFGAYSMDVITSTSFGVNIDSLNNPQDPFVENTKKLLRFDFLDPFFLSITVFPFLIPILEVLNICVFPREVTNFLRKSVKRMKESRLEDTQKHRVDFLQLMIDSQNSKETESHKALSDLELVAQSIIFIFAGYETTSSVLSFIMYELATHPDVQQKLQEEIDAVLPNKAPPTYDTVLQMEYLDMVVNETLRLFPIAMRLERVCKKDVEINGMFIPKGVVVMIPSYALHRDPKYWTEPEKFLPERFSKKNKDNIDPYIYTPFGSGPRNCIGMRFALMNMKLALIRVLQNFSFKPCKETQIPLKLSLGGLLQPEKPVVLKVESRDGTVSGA

Cytochrome P450 2C9 = Cytochrome P450 2C9 (Homo sapiens, UniProt P11712)
Sequence of Cytochrome P450 2C9 (P11712 whole entry): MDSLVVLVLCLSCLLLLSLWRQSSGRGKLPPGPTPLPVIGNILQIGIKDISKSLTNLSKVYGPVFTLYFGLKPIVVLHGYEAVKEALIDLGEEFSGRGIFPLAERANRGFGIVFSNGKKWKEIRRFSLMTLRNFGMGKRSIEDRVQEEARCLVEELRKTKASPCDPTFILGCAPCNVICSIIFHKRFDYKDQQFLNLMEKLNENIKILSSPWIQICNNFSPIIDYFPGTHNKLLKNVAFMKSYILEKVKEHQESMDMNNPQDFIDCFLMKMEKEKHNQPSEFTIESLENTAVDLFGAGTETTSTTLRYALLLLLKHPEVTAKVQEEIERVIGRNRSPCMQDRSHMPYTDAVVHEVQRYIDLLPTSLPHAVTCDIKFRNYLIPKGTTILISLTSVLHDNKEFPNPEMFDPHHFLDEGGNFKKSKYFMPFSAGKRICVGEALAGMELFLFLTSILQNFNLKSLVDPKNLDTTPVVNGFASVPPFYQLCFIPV
Description: Inhibition of recombinant human CYP2C9 expressed in Escherichia coli using FCA as substrate incubated for 15 to 60 mins by fluorometric assay

[4] = rat, hepatocytes, 2 h, 0.5 µM
[5] = dog, hepatocytes, 2 h, 0.5 µM
[6] = human, hepatocytes, 2 h, 0.5 µM
physchem = conditions: FaSSIF, pH 6.5
Description: Solubility of the compound in FaSSIF at pH 6.5 measured after 30 mins by HPLC analysis

Row | SMILES | IC50 [1] [µM] | IC50 [3] [µM] | further results
1 | COCC(C)n1c(C2CCOCC2)nc2cnc3cc(-c4c(C)noc4C)c(OC)cc3c21 (racemic) | 0.126 | 0.1 | IC50 [2]: 0.398 µM
2 | COc1cc2c(cc1-c1c(C)noc1C)ncc1nc(C3CCOCC3)n(C(C)C3CCOCC3)c12 (stereo not drawn) | 0.1 | 0.0316 | IC50 [2]: 0.2 µM
3 | COc1cc2c(cc1-c1c(C)noc1C)ncc1nc(N(C)C)n(CC3CCOCC3)c12 | 0.0398 | 0.0316 | IC50 (Cytochrome P450 3A4): 10 µM; IC50 [2]: 0.251 µM; IC50 (Cytochrome P450 2C9): 1.3 µM
4 | CCc1nc2cnc3cc(-c4c(C)noc4C)c(OC)cc3c2n1Cc1ccccn1 | 0.158 | 0.0316 | –
5 | COCc1nc2cnc3cc(-c4c(C)noc4C)c(OC)cc3c2n1Cc1ccccn1 | 0.398 | 0.0631 | –
6 | COc1cc2c(cc1-c1c(C)noc1C)ncc1[nH]c(=O)n(CC3CCCOC3)c12 (racemic) | 1.26 | 0.251 | –
7 | CCCc1nc2cnc3cc(-c4c(C)noc4C)c(OC)cc3c2n1Cc1ccccn1 | 0.126 | 0.0251 | –
8 | COCC(C)n1c(=O)[nH]c2cnc3cc(-c4c(C)noc4C)c(OC)cc3c21 (racemic) | 1.58 | 0.631 | –
9 | COCCNc1nc2cnc3cc(-c4c(C)noc4C)c(OC)cc3c2n1[C@H](C)c1ccccn1 | 0.0251 | 0.0126 | IC50 (Cytochrome P450 3A4): 7.9 µM; IC50 [2]: 0.158 µM; IC50 (Cytochrome P450 2C9): 7.9 µM
10 | COc1cc2c(cc1-c1c(C)noc1C)ncc1nc(C(C)C)n(Cc3ccccn3)c12 | 0.158 | 0.0398 | –
11 | COc1cc2c(cc1-c1c(C)noc1C)ncc1[nH]c(=O)n(CC(C)C)c12 | 1 | 0.794 | –
12 | COc1cc2c(cc1-c1c(C)noc1C)ncc1[nH]c(=O)n(CC3CCOC3)c12 (racemic) | 3.98 | 0.631 | –
13 | COc1cc2c(cc1-c1c(C)noc1C)ncc1[nH]c(=O)n(Cc3ccccn3)c12 | 0.501 | 0.158 | –
14 | COc1cc2c(cc1-c1c(C)noc1C)ncc1nc(N)n(Cc3ccccn3)c12 | 0.158 | 0.0398 | –
15 | COc1cc2c(cc1-c1c(C)noc1C)ncc1[nH]c(=O)n(C3CCOCC3)c12 | 1.58 | 1.58 | –
16 | COc1cc2c(cc1-c1c(C)noc1C)ncc1[nH]c(=O)n([C@H](C)c3ccccn3)c12 | – | – | CLint [4]: < 0.86 mL/min/g liver; CLint [5]: 9.8 mL/min/g liver; CLint [6]: < 0.86 mL/min/g liver; solubility at 0.5 h (physchem): 66 µg/mL (≈ 159 µM)
17 | COc1cc2c(cc1-c1c(C)noc1C)ncc1[nH]c(=O)n(C3CCNCC3)c12 | 15.8 | 2 | –

Row | SMILES | IC50 [1] [µM] | IC50 [3] [µM] | further results
18 | COc1cc2c(cc1-c1c(C)noc1C)ncc1[nH]c(=O)n(CCN(C)C)c12 | 1.58 | 0.794 | –
19 | COc1cc2c(cc1-c1c(C)noc1C)ncc1nc(C3CCOCC3)n(Cc3ccccn3)c12 | 0.251 | 0.0631 | –
20 | COCc1nc2cnc3cc(-c4c(C)noc4C)c(OC)cc3c2n1CC1CCOCC1 | 0.398 | 0.0794 | –
21 | COc1cc2c(cc1-c1c(C)noc1C)ncc1[nH]c(=O)n(CC3CC3)c12 | 0.398 | 0.631 | –
22 | CCCC(C)n1c(=O)[nH]c2cnc3cc(-c4c(C)noc4C)c(OC)cc3c21 (stereo not drawn) | 0.126 | 0.126 | –
23 | COc1cc2c(cc1-c1c(C)noc1C)ncc1[nH]c(=O)n(CC3CCOCC3)c12 | 0.2 | 0.1 | –
24 | CCNC(=O)C[C@@H]1N=C(c2ccc(Cl)cc2)c2cc(OC)ccc2-n2c(C)nnc21 [MOLIBRESIB] | – | – | CLint [4]: < 0.86 mL/min/g liver; CLint [5]: < 1.7 mL/min/g liver; CLint [6]: < 0.86 mL/min/g liver
25 | COc1cc2c(cc1-c1c(C)noc1C)ncc1[nH]c(=O)n(C(C)C)c12 | 3.16 | 1.26 | –
26 | COC[C@H](C)n1c(C2CCOCC2)nc2cnc3cc(-c4c(C)noc4C)c(OC)cc3c21 | 0.501 | 0.158 | IC50 [2]: 0.316 µM
27 | COc1cc2c(cc1-c1c(C)noc1C)ncc1nc(C3CCOCC3)n(CC3CC3)c12 | 0.316 | 0.126 | IC50 [2]: 2 µM
28 | COCCNc1nc2cnc3cc(-c4c(C)noc4C)c(OC)cc3c2n1Cc1ccccn1 | 0.1 | 0.0316 | IC50 (Cytochrome P450 3A4): 15.8 µM; IC50 [2]: 0.398 µM; IC50 (Cytochrome P450 2C9): 31.6 µM
29 | COc1cc2c(cc1-c1c(C)noc1C)ncc1[nH]c(=O)n(C(C)C3CCOCC3)c12 (racemic) | 0.2 | 0.158 | –
30 | COc1cc2c(cc1-c1c(C)noc1C)ncc1[nH]c(=O)n(CC3CCN(C)CC3)c12 | 3.16 | 1.26 | –
31 | COc1cc2c(cc1-c1c(C)noc1C)ncc1nc(C)n(Cc3ccccn3)c12 | 0.0398 | 0.0398 | –
32 | COCc1nc2cnc3cc(-c4c(C)noc4C)c(OC)cc3c2n1C(C)COC (racemic) | 0.631 | 0.2 | –
33 | COc1cc2c(cc1-c1c(C)noc1C)ncc1nc(N3CCOCC3)n(CC3CCOCC3)c12 | 0.0251 | 0.0398 | IC50 [2]: 0.251 µM
